# From patent US20140287923A1, “METHOD FOR ENHANCING CROP YIELDS BY APPLICATION OF TREHALOSE” (Stoller Enterprises, Inc., priority 2012, published 2014)
# Columns and labels:
# Type in all cases: in vivo
# Potatoes, cultivar Eva = assay: Reducing sugar content of potato tubers after foliar trehalose, cultivar Eva; settings: for Reducing Sugar Content of Tubers (absorbance at 570 nm): 100 grams/acre foliar, n = 16
# Experimental: Potatoes, cultivar Eva in Pennsylvania, were treated either 4 or 2 weeks before harvest with a foliar application of trehalose at the rate of 100 grams per acre. The potatoes were harvested and shipped to College Station, Texas for analysis of reducing sugars. […] (Table 4).
# [1] = tested on: Field Corn, cultivar Asgrow 7371; assay: Foliar trehalose on field corn yield, cultivar Asgrow 7371; settings: trehalose 100 grams per acre foliar, 4 and 5 weeks after V16 stage
# Text: Field Corn, cultivar Asgrow 7371, was twice treated foliarly before harvest with an aqueous solution of trehalose at the rate of 100 grams of trehalose per acre, at 4 weeks after the V16 stage of growth, and once again foliarly at the same rate at 5 weeks after the V16 stage of growth.
# Sugar Beets = assay: Foliar trehalose on sugar beet yield and quality
# Text: Sugar Beets were foliarly treated with Trehalose at the rate of 300 grams per acre in Yuma Colo.
# Sugar Cane = assay: Trehalose on sugar per acre from sugar cane; settings: 4 weeks before harvest
# Experimental: Sugar Cane, grown in southern Texas was treated 4 weeks before harvest with an aqueous solution of Trehalose at the rate of 450 grams per acre, gave an extra 897 pounds of sugar from sugar cane production.
# [2] = tested on: Field corn, Cultivar Dekalb C6805; assay: Foliar trehalose on field corn yield, cultivar Dekalb C6805; settings: for Yield of field corn (bushels per acre): control 155; for Weight of 1,000 kernels (grams): control 261
# Experimental: Field corn, Cultivar Dekalb C6805, was treated foliarly with an aqueous solution of trehalose at the rate of 100 grams per acre, either at the […] stage of growth or 3 weeks before the […] stage of growth, in southern Texas. Field corn yields were increased with this cultivar from 155 bushels per acre to an unprecedented 337 bushels per acre for this locale, characterized by hot, windy climate and poor soils and high levels of pests including disease and insects. Seed weights of the corn kernels were increased.
# [3] = tested on: Potatoes, cultivar Snowden; assay: Reducing sugar content of potato tubers after foliar trehalose, cultivar Snowden; settings: 4 or 2 weeks before harvest, inversely proportional to the dose of trehalose
# Experimental: Potatoes, cultivar Snowden in Wisconsin, were treated either 4 or 2 weeks before harvest with a foliar application of trehalose at the rate of 100 grams per acre. The potatoes were harvested and shipped to College Station, Tex. for analysis of reducing sugars.
# winter wheat = assay: Foliar trehalose on yield of winter wheat; settings: 100 g/a Foliar, 4 weeks before harvest; control 0%; highly significant
# Experimental: Wheat, grown in Ontario Canada, was treated foliarly with an aqueous solution of trehalose at the rate of 100 grams per acre, 4 weeks before harvest.
# Potato, cultivar Eva = assay: Yield of Eva potato treated foliarly with trehalose 4 weeks before harvest; settings: for pounds per graded size #4 (>10 ounces): control 0.0; for pounds per graded size #1 (0 to 4 ounces): control 0.8; for pounds per graded size #2 (>4 ounces) / pounds per graded size #3 (>6 ounces): control 6.8; for pounds Total: control 14.4
# [4] = 100 grams per acre foliar at the V16 stage of growth
# [5] = 100 grams per acre foliar, 3 wk prior to V16 growth stage
structure (smiles),measurement,setting,value
"OC[C@H]1O[C@H](O[C@H]2O[C@H](CO)[C@@H](O)[C@H](O)[C@H]2O)[C@H](O)[C@@H](O)[C@@H]1O [Trehalose, trehalose]",Reducing sugars in the potato tubers,"Potatoes, cultivar Eva; 100 grams per acre foliar, 4 weeks before harvest",decreased
same,Reducing Sugar Content of Tubers (absorbance at 570 nm),"Potatoes, cultivar Eva; 2 weeks before Harvest, control 0.200 ± 0.08",0.211 ± 0.12 absorbance at 570 nm
same,Reducing Sugar Content of Tubers (absorbance at 570 nm),"Potatoes, cultivar Eva; 4 weeks before Harvest, control 0.217 ± 0.15",0.125 ± 0.03 absorbance at 570 nm
same,Yield increase by treatment of trehalose,[1],up to 125%
same,Yield of field corn (bushels per acre),"[1]; Cultivar 7371, control 103 bu/acre",231 bu/acre
same,"Weight of 1,000 kernels (grams)","[1]; Cultivar 7371, control 288 grams",368 grams
same,Percent SLM,"Sugar Beets; 300 g/a Foliar, 2 weeks before harvest, control 1.85",1.22%
same,Percent Sugar,"Sugar Beets; 300 g/a Foliar, 2 weeks before harvest, control 15.83%",17.23%
same,Sugar Beet yield (tons per acre),"Sugar Beets; 300 g/a Foliar, 2 weeks before harvest, control 27.79",28.4 tons per acre
same,Pounds of Sugar per acre,"Sugar Beets; 300 g/a Foliar, 2 weeks before harvest, control 8797",9770 Pounds of Sugar per acre
same,Extra sugar per acre transferred to the beets,Sugar Beets; 300 grams per acre foliar,nearly half an extra ton of sugar per acre
same,% SLM,"Sugar Beets; 300 grams per acre, 2 weeks before harvest",decided reduction
same,increase in lb of sugar per acre from sugar cane,"Sugar Cane; 450 g/a Foliar, control 0",897 lb
same,extra sugar from sugar cane production,Sugar Cane; 450 grams per acre,897 pounds
same,Seed weights of the corn kernels,[2]; 100 grams per acre foliar,increased
same,Yield of field corn (bushels per acre),[2]; [4],311 bushels per acre
same,"Weight of 1,000 kernels (grams)",[2]; [4],286 grams
same,Yield of field corn (bushels per acre),[2]; [5],327 bushels per acre
same,"Weight of 1,000 kernels (grams)",[2]; [5],294 grams
same,Field corn yield,"[2]; 100 grams per acre foliar, V16 or 3 weeks before V16, increased from 155",337 bushels per acre
same,Reducing sugar content of potato tubers,[3],decrease in reducing sugar content
same,increase in yield of winter wheat,winter wheat,"9.5%, highly significant"
same,Potato yield,"Potato, cultivar Eva; 100 grams per acre foliar",increased yields
same,pounds per graded size #4 (>10 ounces),"Potato, cultivar Eva; Trehalose 25 g foliar",0.0 pounds
same,pounds per graded size #1 (0 to 4 ounces),"Potato, cultivar Eva; Trehalose 25 g foliar",1.1 pounds
same,pounds per graded size #2 (>4 ounces),"Potato, cultivar Eva; Trehalose 25 g foliar",7.2 pounds
same,pounds per graded size #3 (>6 ounces),"Potato, cultivar Eva; Trehalose 25 g foliar",8.6 pounds
same,pounds Total,"Potato, cultivar Eva; Trehalose 25 g foliar",16.9 pounds
same,pounds per graded size #4 (>10 ounces),"Potato, cultivar Eva; Trehalose 50 g foliar",0.0 pounds
same,pounds per graded size #1 (0 to 4 ounces),"Potato, cultivar Eva; Trehalose 50 g foliar",0.9 pounds
same,pounds per graded size #2 (>4 ounces),"Potato, cultivar Eva; Trehalose 50 g foliar",7.0 pounds
same,pounds per graded size #3 (>6 ounces),"Potato, cultivar Eva; Trehalose 50 g foliar",8.3 pounds
same,pounds Total,"Potato, cultivar Eva; Trehalose 50 g foliar",16.2 pounds
same,pounds per graded size #4 (>10 ounces),"Potato, cultivar Eva; Trehalose 100 g foliar",0.4 pounds
same,pounds per graded size #1 (0 to 4 ounces),"Potato, cultivar Eva; Trehalose 100 g foliar",0.8 pounds
same,pounds per graded size #2 (>4 ounces),"Potato, cultivar Eva; Trehalose 100 g foliar",7.4 pounds
same,pounds per graded size #3 (>6 ounces),"Potato, cultivar Eva; Trehalose 100 g foliar",8.4 pounds
same,pounds Total,"Potato, cultivar Eva; Trehalose 100 g foliar",17.0 pounds
